Assay results taken from patent US11478471B2, “Methods and compositions for treating diabetes, metabolic syndrome and other conditions” (priority 2005, dated 2022).
Values after ≈ are worked out from the molar mass of the structure shown. Where two headings read alike, the source gives them in different places.

How the values were obtained:
[1] = system: cholesterol levels; test: Cholesterol levels in rats after oral dosing; format: in vivo, Sprague Dawley rats; conditions: for Cholesterol Levels (mean ± SEM): single oral 200 mg/kg
Protocol: The rats were maintained as described above; the drugs were suspended in olive oil, and each rat was dosed once via gastric tube to achieve a dose of 200 mg/kg. All of the rats were dosed at a specific time so that all terminations occurred between 6 and 7 pm. […] Following sacrifice, plasma was prepared, and the concentration of corticosterone in the plasma was determined by ELISA. In the same plasma samples, total cholesterol levels were also determined.

[2] = system: Candida albicans; test: Antifungal MIC; format: cell-based
[3] = system: Candida tropicalis; test: Antifungal MIC; format: cell-based
[4] = system: Saccharomyces cerevisiae; test: Antifungal MIC; format: cell-based; conditions: DSM01333, DSM strain 01333, 48 h
[5] = read-out: Cmax of unmetabolized ketoconazole; humans, 400 mg dose; cited from earlier work
[6] = SBA for NDA 18-533; cited from earlier work
[7] = Toxicokinetics in the 28 day dog study of DIO-902 (with racemic ketoconazole group a); conditions: beagle, plasma, dogs; for concentration at 0 h / concentration at 1 h / concentration at 2 h / concentration at 4 h / concentration at 8 h / concentration at 12 h: Drug concentration in plasma; for AUC(0-t): AUC(0-12); for Tmax: Tmax Range;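 for all read-outs here: beagle dogs dosed orally once daily within a 28-day GLP study, 3 animals per sex per group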
[8] = female, oral, 20 mg/kg, group a: 20 mg/kg oral (after 40 mg/kg days 1-9, pause), day 28, F
[9] = female, po, 20 mg/kg, group a: 20 mg/kg oral (after 40 mg/kg days 1-9, pause), day 28, F
[10] = female, po, 40 mg/kg, group a: 40 mg/kg oral, day 1, F
[11] = male, oral, 20 mg/kg, group a: 20 mg/kg oral (after 40 mg/kg days 1-9, pause), day 28, M
[12] = male, po, 20 mg/kg, group a: 20 mg/kg oral (after 40 mg/kg days 1-9, pause), day 28, M
[13] = male, po, 40 mg/kg, group a: 40 mg/kg oral, day 1, M

CC(=O)N1CCN(c2ccc(OCC3COC(Cn4ccnc4)(c4ccc(Cl)cc4Cl)O3)cc2)CC1 (racemic) [Racemic ketoconazole, 1-acetyl-4-[4-[[2-(2,4-dichlorophenyl)-2-[(1H-imidazol-1-yl)-methyl]-1,3-dioxolan-4-yl]methoxy]phenyl]piperazine]
efficacy at lowering cholesterol ([1]; 200 mg/kg oral, up to 24 hours): intermediate between the two enantiomers
Cholesterol Levels (mean ± SEM) ([1]; 4 h): 81.2 ± 3.9 mg/dL
Cholesterol Levels (mean ± SEM) ([1]; 8 h): 73.5 ± 2.3 mg/dL
Cholesterol Levels (mean ± SEM) ([1]; 12 h): 69.6 ± 2.3 mg/dL
Cholesterol Levels (mean ± SEM) ([1]; 16 h): 69.6 ± 3.1 mg/dL
MIC ([2]; 48 h): < 0.015 µg/mL
MIC ([2]; DSM11225, 48 h): < 0.015 µg/mL
MIC ([2]; DSM11943, 48 h): < 0.015 µg/mL
MIC ([2]; DSM11944, 48 h): < 0.015 µg/mL
MIC ([2]; DSM11945, 48 h): 0.03 µg/mL (≈ 0.0565 µM)
MIC ([2]; DSM11948, 48 h): < 0.015 µg/mL
MIC ([2]; DSM11949, 48 h): 0.125 µg/mL (≈ 0.235 µM)
MIC ([3]; DSM11951, 48 h): 0.125 µg/mL (≈ 0.235 µM)
MIC ([3]; DSM11952, 48 h): 4 µg/mL (≈ 7.53 µM)
MIC ([3]; DSM11953, 48 h): 0.06 µg/mL (≈ 0.113 µM)
MIC [4]: 0.25 µg/mL (≈ 0.47 µM)
Cmax [5]: 12.3 µM
carcinogenicity [6]: non-carcinogenic
concentration at 0 h [7, 8]: < 250 ng/mL
concentration at 1 h [7, 8]: < 250 ng/mL
concentration at 2 h [7, 8]: 270 ng/mL
concentration at 4 h [7, 8]: 350 ng/mL
concentration at 8 h [7, 8]: 310 ng/mL
concentration at 12 h [7, 8]: < 250 ng/mL
AUC(0-t) ([7]; female, po, 20 mg/kg, group a: 20 mg/kg oral (after 40 mg/kg days 1-9, pause), day 28, F, n = 1): 4700 ng·h/mL
Cmax [7, 9]: 550 ng/mL
Tmax [7, 9]: 2 to 8 h
AUC(0-t) [7, 10]: 185000 ng·h/mL
Cmax [7, 10]: 21300 ng/mL
concentration at 0 h [7, 10]: < 250 ng/mL
concentration at 1 h [7, 10]: 4290 ng/mL
concentration at 2 h [7, 10]: 12300 ng/mL
concentration at 4 h [7, 10]: 20100 ng/mL
concentration at 8 h [7, 10]: 18300 ng/mL
concentration at 12 h [7, 10]: 14800 ng/mL
Tmax [7, 10]: 4 to 8 h
concentration at 0 h [7, 11]: < 250 ng/mL
concentration at 1 h [7, 11]: < 250 ng/mL
concentration at 2 h [7, 11]: 280 ng/mL
concentration at 4 h [7, 11]: < 250 ng/mL
concentration at 8 h [7, 11]: < 250 ng/mL
concentration at 12 h [7, 11]: < 250 ng/mL
AUC(0-t) ([7]; male, po, 20 mg/kg, group a: 20 mg/kg oral (after 40 mg/kg days 1-9, pause), day 28, M, n = 1): 3420 ng·h/mL
Cmax [7, 12]: 510 ng/mL
Tmax [7, 12]: 1 to 8 h
AUC(0-t) [7, 13]: 143000 ng·h/mL
Cmax [7, 13]: 16600 ng/mL
concentration at 0 h [7, 13]: < 250 ng/mL
concentration at 1 h [7, 13]: 5600 ng/mL
concentration at 2 h [7, 13]: 8870 ng/mL
concentration at 4 h [7, 13]: 10800 ng/mL
concentration at 8 h [7, 13]: 16600 ng/mL
concentration at 12 h [7, 13]: 12800 ng/mL
Tmax [7, 13]: 8 h
